Reference: PubChem BioAssay (NCI)
“And” between values parts separate entries of the source, which are not always exact repeats. Equal entries are not always repeated.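 Where inhibition never reached the appropriate level, the endpoint shown equals the highest concentration tested. Otherwise, values were interpolated linearly from a five-concentration, 48-hour dose response in 96-well plates. GI50 marks 50% less growth. TGI: total growth inhibition.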 *1 amine or outer side, *2 acyl side, *3 side chain or, on linkers, in order; H or OH if unused. Where a SMILES comes first, the peptide text is derived from it. [ ]: non-standard residue; d: D form. The star is where a group is joined. X31 = CC(=O)N(C)SCC(N[*:1])C(=O)[*:2]; Cbz = O=C(OCc1ccccc1)*; Bn = c1ccc(C*)cc1; For = O=C*

How the values were obtained:
Test in all cases: DTP human tumour cell line panel, 48 h
[1] = test system: NCI-H522 lung
[2] = test system: M14 melanoma
[3] = test system: SNB-19 CNS
[4] = test system: COLO 205 colon
[5] = test system: NCI-H226 lung
[6] = test system: HOP-62 NSCLC
[7] = test system: HOP-92 NSCLC
[8] = test system: BT-549 breast
[9] = test system: NCI-H23 lung
[10] = test system: OVCAR-5 ovarian
[11] = test system: SK-MEL-28 melanoma

Structure (SMILES)	TGI [1]	TGI [2]	TGI [3] [µM]	TGI [4]	TGI [5]	TGI [6] [µM]	TGI [7]	TGI [8]	TGI [9]	TGI [10] [µM]	TGI [11]	GI50 [1]	GI50 [2]	GI50 [4]	GI50 [5]	GI50 [6]	GI50 [7]	GI50 [10]	GI50 [11]
CC(C)Cn1cnc2c(NCC(C)O)nc3ccccc3c21 (configuration not stated)	> 100 µM	> 100 µM	> 100	> 100 µM	> 100 µM	> 100	> 100 µM	> 100 µM	> 100 µM	> 100	> 100 µM								
Cc1csc2c(=O)n(C3OC(CO)C(O)C3O)c(=O)[nH]c12 (configuration not stated)	> 100 µM	> 100 µM	> 100	> 100 µM	> 100 µM	> 100	> 100 µM	> 100 µM	> 100 µM	> 100	> 100 µM								
N#Cc1c(N)nc(-c2ccc(Cl)cc2)c2c1-c1ccccc1S(=O)(=O)CC2	> 100 µM	> 100 µM	93.9	> 100 µM	> 100 µM	> 100	> 100 µM	> 100 µM	> 100 µM	> 100	> 100 µM								
O=C(NC1=NCC(CN2CCN(c3ccccc3)CC2)O1)Nc1ccccc1 (configuration not stated)	> 100 µM	> 100 µM	> 100	> 100 µM	> 100 µM	> 100	> 100 µM	> 100 µM	> 100 µM	> 100	> 100 µM								
COc1ccc(-c2c(C#N)c(N)n(C3OCC(OC(C)=O)C(OC(C)=O)C3OC(C)=O)c(=S)c2C#N)cc1 (configuration not stated)	> 100 µM	> 100 µM	> 100	> 100 µM	> 100 µM	> 100	88.8 µM and 98.5 µM	78.7 µM and 99 µM	> 100 µM	> 100	> 100 µM								
C=CCNC(=O)NC(=O)CSC1=NNC2(C(=O)N1)c1ccccc1-c1ccccc12	> 10 µM	> 10 µM	> 10	> 10 µM	> 10 µM	> 10	> 10 µM	> 10 µM	> 10 µM	> 10	> 10 µM								
CC(=O)C(=C(c1ccccc1)c1ccccc1)c1ccccc1	> 100 µM	> 100 µM	> 100	> 100 µM	> 100 µM	> 100	> 100 µM	> 100 µM	> 100 µM	> 100	> 100 µM								
C=C(C)C1=CCC[C@]2(C1)N=C(OC)[C@@H](C(C)C)N=C2OC	> 100 µM	> 100 µM	> 100	> 100 µM	> 100 µM	> 100	> 100 µM	> 100 µM	> 100 µM	> 100	> 100 µM								
Cc1cccc(C)c1NC(=O)C(C#N)C1=C(Cl)C(=O)c2ccccc2C1=O (configuration not stated)	26.2 µM	21.4 µM	32.4	10.2 µM	17.4 µM	32.9	22.4 µM	28.2 µM	44 µM	37.4	38.1 µM								
O=C1CCCCC/C1=C\c1cccc(Cl)c1	> 100 µM	> 100 µM	> 100	> 100 µM	> 100 µM	> 100	> 100 µM	> 100 µM	> 100 µM	> 100	> 100 µM								
Cn1c2ccccc2c2c(-c3ccccc3)cc3c(c21)C(=O)C=CC3=O	2.74 µM	3.4 µM	> 10	2.05 µM	5.04 µM	> 10	3.78 µM	3.04 µM	3.81 µM	> 10	4.34 µM								
CC[C@]1(Cc2ccc(OC)c(OC)c2)C=[N+]([O-])O[C@H](OC2CCCC2(c2ccccc2)c2ccccc2)[C@@H]1OC(=O)c1ccccc1 (some centres not stated)	> 100 µM	> 100 µM	> 100	> 100 µM	> 100 µM	62.3	> 100 µM	> 100 µM	> 45.9 µM	> 100	> 100 µM								
CC(=O)N(C)SCC(NC(=O)C(Cc1ccccc1)NC(=O)OCc1ccccc1)C(=O)NC(Cc1ccccc1)C(=O)NC(Cc1cn(C=O)c2ccccc12)C(=O)NC(CCCCNC(=O)OCc1ccccc1)C(=O)NC(C(=O)NC(CSN(C)C(C)=O)C(=O)NC(C(N)=O)C(C)OCc1ccccc1)C(C)OCc1ccccc1 (configuration not stated) (Cbz-F[X31]FW(For)K(Cbz)T(Bn)[X31]T(Bn)-NH2; configuration not given here)	> 100 µM	> 100 µM	51.7	> 100 µM	> 100 µM	> 100	56.6 µM	68.1 µM	> 100 µM	> 100	> 100 µM								
CCCCCCCCCCCCCCCCCCNc1ccn(C2OC(COP(=O)(O)OCC3OC(n4cc(F)c(=O)[nH]c4=O)CC3O)C(O)C2O)c(=O)n1 (configuration not stated)	> 100 µM	> 78.1 µM	> 100	> 80.4 µM	> 100 µM	> 100	> 100 µM	> 79.7 µM	17.9 µM	39.7	> 100 µM								
O=C1/C(=C/c2cccc(Br)c2)CCc2ccccc21	24.3 µM	29.4 µM	27.9	40.8 µM	31.1 µM	30.1	28.2 µM	22.2 µM	32.6 µM	28.3	33.8 µM								
O=C1CCC2C(O)c3cc4c(cc3C(c3ccc5c(c3)OCO5)N12)OCO4 (configuration not stated)	> 100 µM	> 100 µM	> 100	> 100 µM	> 100 µM	63.7	66.8 µM	> 100 µM	> 100 µM	> 100	> 100 µM								
COC(=O)C1(CCC(C)=O)CCCCCC1=O (configuration not stated)	> 100 µM	> 100 µM	> 100	> 100 µM	> 100 µM	> 100	> 100 µM	> 100 µM	> 100 µM	> 100	> 100 µM								
O=[N+]([O-])/C(C(Cl)=C(Cl)Cl)=C(\N1CCOCC1)n1nnc2ccccc21	34.1 µM	33.4 µM	33.7	34.7 µM	58.7 µM	36.2	37.6 µM	33.1 µM	32.7 µM	44	42.6 µM								
N#Cc1c(-c2ccccc2)cc(-c2ccccc2)n(C2OC(CO)C(O)C(O)C2O)c1=S (configuration not stated)	35.6 µM and > 100 µM	62.6 µM and > 100 µM	> 100	45.9 µM and > 100 µM	49.1 µM and > 100 µM	> 100	> 100 µM	80.6 µM and > 100 µM	58.9 µM and 89.7 µM	> 100	47.4 µM and > 100 µM	17.1 µM and 38.9 µM	25.1 µM and > 100 µM	17.9 µM and 43 µM	22.3 µM and 69.8 µM	34.3 µM and 72.8 µM	46.6 µM and > 100 µM	35.8 µM and > 100 µM	18.8 µM and 53.5 µM
